Measured values reported in patent publication US20110177178A1, “Extracts of Deschampsia antarctica Desv. with antineoplastic activity” (Uxmal S.A., Chile, priority 2007, published 2011).

Test system: LoVo colorectal cancer cells
Assay: in vitro growth / proliferation of LoVo colon cancer cells
Assay type: cell-based, human
Conditions: for antineoplastic activity of peaks and peak combinations: 450 uM, FIG. 14
Procedure: FIG. 2. […] The extracts were prepared with water, then dried and dissolved in methanol. Control contains no extract added and the methanol control is a control containing 5% methanol as was used to dissolve the dried aqueous extract. FIG. 3. Effects of ethyl acetate (a and b) and methanol (c and d) extracts at to concentration of 75 ug/ml on LoVo colorectal cancer cells (a and c) and we38 human fetal fibroblast cells (b and d). FIG. 4. […] An assay to test the biological activity of individual peaks was carried out using the same antineoplastic test already evaluated for the whole extract. The main purpose of these studies was to identify who are the peaks with the highest biological activity and to determine a synergistic effect among the different compounds.

Compound | antineoplastic activity of peaks and peak combinations | concentration at which inhibitory effect of cellular proliferation was observed, converted (LoVo, corresponds to 1.7 mM) [µg/mL] | concentration at which inhibitory effect of cellular proliferation was observed (LoVo, tested at 0.017, 0.17 and 1.7 mM, FIG. 4) [mM]
O=c1cc(-c2ccc(O)c(O)c2)oc2c(C3OC(CO)C(O)C(O)C3OC3OCC(O)C(O)C3O)c(O)cc(O)c12 (single isomer, unassigned; peak 1) [peak 1, 2″-O-β-O arabinopyranoside orientin (orientin traces)] | only a weak antineoplastic activity | – | –
COc1cc(O)c2c(=O)cc(-c3ccc(O)c(O)c3)oc2c1C1OC(CO)C(O)C(O)C1OC1OCC(O)C(O)C1O (single isomer, unassigned; peak 2) [peak 2, isowertiajaponine (7-O-methyl orientin-2″-O-arabinopiranoside)] | only a weak antineoplastic activity | 1000 | 1.7
